According to patent US20080070264A1, “Intracellular Signaling-Induced Ret-Independent Gdnf Receptor-Effected Morphological Changes” (JPMORGAN CHASE BANK N.A., priority 2003, published 2008):

Experiments:
MET [1] = test: MET phosphorylation in SHEP neuroblastoma cells; assay type: cell-based, human; conditions: SHEP cells
Description: FIG. 7B: SHEP cells were grown with GDNF (10 ng/ml (lanes 2-4) or 5 pg/ml (lanes 5-7)) or HGF (10 ng/ml (lanes 8-9)) in the presence of PP2 (1 μM (lanes 3 and 6) and 10 μM (lanes 4 and 7)). To exclude a possible cytotoxic effect of the solvent, DMSO was added to the controls. […] The numbers below the lane indicate the fold of induction of MET tyrosine kinase. The results are representative of three independent experiments.
(§1) To detect MET activation, GFRα1- and RET/GFRα1-expressing MDCK or SHEP cells were starved overnight in MEM or RPMI 1640 with 1% FCS, respectively, and in serum-free medium for 2 h prior the induction. After 15 min incubation at 37° C. with GDNF (at indicated concentrations) or with 50 ng/ml HGF, cells were lysed as described. Cleared cell lysates were incubated with anti-MET antibodies (Santa Cruz Biotechnologies, Inc.) overnight at 4° C. Immunoprecipitates were collected with protein A-SEPHAROSE (Amersham Pharmacia Biotech), washed, separated by SDS-PAGE and transferred to HYBOND-ECL membranes. Membranes were immunoblotted with anti-phospho-tyrosine antibodies (Upstate Group Inc.) or anti-MET antibodies.
(§2) For all experiments, densitometry and quantifications were performed using TINA 2.0 program (Raytest, Straubenhardt, Germany).
(§3) For the inhibition of MET, and Src activation, SHEP or GFRα1- and RET/GFRα1-expressing MDCK cells were starved as described above. 1 or […] of the inhibitor PP2 (Calbiochem) was added 30 min before induction by GDNF or HGF. DMSO (dimethyl sulfoxide) was added to the positive controls together with GDNF or HGF.

MET [2] = test: MET phosphorylation in MDCK cells (immunoprecipitation, Western blotting); assay type: cell-based, dog
Description: as §1
Alternatively, 30 μg of protein was incubated overnight at 4° C. with 10 μl Immobilized Phospho-Tyrosine Monoclonal Antibodies (Cell Signalling, NEB). Immunocomplexes were washed and analysed as described.
as §2, §3

MET [3] = target: MET (Homo sapiens, UniProt P08581); conditions: Villa-Moruzzi et al., 1993; cited from earlier work
wild-type MDCK cells [4] = conditions: Stoker et al., 1987; cited from earlier work
wild-type MDCK cells [5] = test: Branching tubule formation assay in 3-D collagen gel; assay type: cell-based, dog; conditions: 3-D collagen gel
Description: (§4) From the total amount of cysts in the field, the percentage of cysts with long branches was calculated. Only branches with lengths of more than two cyst diameters were counted.
(§5) Trypsinized cells were mixed 1:3 with collagen type I solution and plated. MEM with 10% FCS was overlaid on the gels with or without GDNF (Cephalon Inc. or R&D Systems, Inc.) or 50 ng/ml HGF. Cells in collagen were cultured for 3 days; GDNF-containing medium was changed daily. For quantification, cells were cultured for 3 days, fixed by 3% glutaraldehyde in PBS and counted under a light microscope.
(§6) To avoid the effect of possible contamination of GDNF preparation, recombinant GDNF from two different sources were tested. One tested GDNF was expressed in baculovirus-infected insect cells (Cephalon Inc.), the other was expressed in mouse myeloma cell line NSO (R&D Systems, Inc.).

MET [6] = target: T1, MET (Chlorocebus aethiops, UniProt Q2IBA6); test: 125I-labelled GDNF and HGF binding, chemical crosslinking, anti-MET immunoprecipitation
T1 construct: different combinations of the MET β-subunit (140 kDa), Met-αβ heterodimer (190 kDa) and HGF complexes; endogenous in cells; host or cells: COS7 cells (wild type for 125I-HGF; transfected with pc3-GFRα1/GFP for 125I-GDNF)
Description: Binding of ^125I-GDNF to COS7 cells transfected with GFRα1, and ^125-HGF to wild-type COS7, followed by cross-linking with EDC together with sulfo-NHS. Inmunoprecipitates with anti-MET antibodies (IP-Met) were analysed by SDS-PAGE under reducing conditions. ^125I-HGF α subunit and proHGF are marked by arrows. ^125I-HGF/MET complexes are denoted by arrow heads. The results are representative of five independent experiments.
GDNF and HGF were enzymatically iodinated with [^125I]NaI (Amersham Pharmacia Biotech) with lactoperoxidase to a specific activity of 100.000 cpm/ng as described (31). COS7 cells were transfected with pc3-GFRα1/GFP two days prior the assay. 2 nM of ^125I-GDNF or 1 nM of ^125I-HGF were allowed to bind to cell monolayers for 1-2 h on ice in binding buffer (DMEM/15 mM HEPES, pH 7.5; 0.2% BSA), washed, and chemically cross-linked for 30 min at room temperature using BS^3 ([Bis(sulfosuccinimidyl)suberate]), DSS ((Disulfosuccinimidyl)suberate), DSP (3,3-Dithio-bis-(sulfosuccinimidyl)propionate) or EDC ((1-Ethyl-3-[3-dimethylaminopropyl]carbodiimide Hydrochloride)) with sulfo-NHS (N-Hydroxysulfosuccinimide) (Pierce). The non-specific binding of GDNF was estimated by the amount of ^125I-GDNF binding to cells in the presence of 300 n M unlabeled GDNF. Cells were washed, lysed and immunoprecipitated with anti-MET antibodies as described. Gels were dried and analyzed by phosphorimaging in a BAS Reader 1800 (Fuji).

[7] = tested on: GFRα1-expressing MDCK cells; test: Branching tubule formation assay in 3-D collagen gel; assay type: cell-based, dog; conditions: ligand 100 ng/ml; 3-D collagen gel
Description: as §4
(§7) FIG. 2C: Dose-dependence of GDNF-induced branching of GFRα1- and RET/GFRα1-expressing MDCK cells. GDNF concentrations are per ml (x-axis). Results are reported as fold of branching cysts count over the non-induced control. Means±standard errors of the mean of five to eight counted fields are shown. The results are representative of five (A and B) and three (C) independent experiments, p<0.001.
as §5, §6

[8] = tested on: RET/GFRα1-expressing MDCK cells; test: as above; assay type: cell-based, dog; conditions: ligand 100 ng/ml; 3-D collagen gel
Description: as §4, §7, §5, §6

[9] = GFRα1- and RET/GFRα1-expressing MDCK cells, data not shown

T1 sequence (Q2IBA6 25-1381): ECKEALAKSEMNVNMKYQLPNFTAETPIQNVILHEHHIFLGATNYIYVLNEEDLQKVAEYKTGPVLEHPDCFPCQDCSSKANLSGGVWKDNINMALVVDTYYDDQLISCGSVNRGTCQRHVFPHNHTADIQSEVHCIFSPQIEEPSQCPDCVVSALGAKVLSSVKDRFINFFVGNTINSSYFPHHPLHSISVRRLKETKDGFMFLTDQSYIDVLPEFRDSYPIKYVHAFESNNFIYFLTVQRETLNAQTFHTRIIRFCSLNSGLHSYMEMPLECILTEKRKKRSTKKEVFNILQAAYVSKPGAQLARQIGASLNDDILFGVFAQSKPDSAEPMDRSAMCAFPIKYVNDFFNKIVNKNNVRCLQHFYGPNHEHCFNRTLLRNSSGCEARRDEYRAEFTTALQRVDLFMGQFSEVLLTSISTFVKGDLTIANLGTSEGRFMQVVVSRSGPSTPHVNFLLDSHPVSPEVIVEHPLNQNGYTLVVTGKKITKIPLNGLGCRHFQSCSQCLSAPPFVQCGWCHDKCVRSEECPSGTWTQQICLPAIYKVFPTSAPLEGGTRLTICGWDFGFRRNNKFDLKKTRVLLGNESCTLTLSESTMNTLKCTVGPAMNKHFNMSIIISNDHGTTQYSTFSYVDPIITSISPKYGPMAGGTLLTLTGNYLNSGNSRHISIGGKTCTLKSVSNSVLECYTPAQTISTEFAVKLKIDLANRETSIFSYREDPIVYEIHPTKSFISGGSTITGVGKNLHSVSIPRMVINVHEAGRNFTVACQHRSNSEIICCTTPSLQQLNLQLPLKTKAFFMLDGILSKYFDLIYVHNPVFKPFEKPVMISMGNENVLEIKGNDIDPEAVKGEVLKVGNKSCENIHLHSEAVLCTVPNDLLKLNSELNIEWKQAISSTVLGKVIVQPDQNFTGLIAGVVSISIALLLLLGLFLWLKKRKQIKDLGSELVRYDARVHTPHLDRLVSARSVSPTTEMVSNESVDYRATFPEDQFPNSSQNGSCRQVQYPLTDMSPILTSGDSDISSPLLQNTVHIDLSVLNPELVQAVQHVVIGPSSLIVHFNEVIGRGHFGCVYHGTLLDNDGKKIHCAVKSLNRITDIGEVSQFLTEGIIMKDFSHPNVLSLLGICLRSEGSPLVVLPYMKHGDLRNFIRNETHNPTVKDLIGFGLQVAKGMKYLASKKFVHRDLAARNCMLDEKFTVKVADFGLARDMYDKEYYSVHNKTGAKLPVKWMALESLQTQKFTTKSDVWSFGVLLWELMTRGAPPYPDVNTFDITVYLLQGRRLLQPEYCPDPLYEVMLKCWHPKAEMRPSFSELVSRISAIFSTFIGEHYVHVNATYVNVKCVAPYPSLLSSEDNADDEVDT
Sequence of MET (Homo sapiens, UniProt P08581) (P08581 25-1390): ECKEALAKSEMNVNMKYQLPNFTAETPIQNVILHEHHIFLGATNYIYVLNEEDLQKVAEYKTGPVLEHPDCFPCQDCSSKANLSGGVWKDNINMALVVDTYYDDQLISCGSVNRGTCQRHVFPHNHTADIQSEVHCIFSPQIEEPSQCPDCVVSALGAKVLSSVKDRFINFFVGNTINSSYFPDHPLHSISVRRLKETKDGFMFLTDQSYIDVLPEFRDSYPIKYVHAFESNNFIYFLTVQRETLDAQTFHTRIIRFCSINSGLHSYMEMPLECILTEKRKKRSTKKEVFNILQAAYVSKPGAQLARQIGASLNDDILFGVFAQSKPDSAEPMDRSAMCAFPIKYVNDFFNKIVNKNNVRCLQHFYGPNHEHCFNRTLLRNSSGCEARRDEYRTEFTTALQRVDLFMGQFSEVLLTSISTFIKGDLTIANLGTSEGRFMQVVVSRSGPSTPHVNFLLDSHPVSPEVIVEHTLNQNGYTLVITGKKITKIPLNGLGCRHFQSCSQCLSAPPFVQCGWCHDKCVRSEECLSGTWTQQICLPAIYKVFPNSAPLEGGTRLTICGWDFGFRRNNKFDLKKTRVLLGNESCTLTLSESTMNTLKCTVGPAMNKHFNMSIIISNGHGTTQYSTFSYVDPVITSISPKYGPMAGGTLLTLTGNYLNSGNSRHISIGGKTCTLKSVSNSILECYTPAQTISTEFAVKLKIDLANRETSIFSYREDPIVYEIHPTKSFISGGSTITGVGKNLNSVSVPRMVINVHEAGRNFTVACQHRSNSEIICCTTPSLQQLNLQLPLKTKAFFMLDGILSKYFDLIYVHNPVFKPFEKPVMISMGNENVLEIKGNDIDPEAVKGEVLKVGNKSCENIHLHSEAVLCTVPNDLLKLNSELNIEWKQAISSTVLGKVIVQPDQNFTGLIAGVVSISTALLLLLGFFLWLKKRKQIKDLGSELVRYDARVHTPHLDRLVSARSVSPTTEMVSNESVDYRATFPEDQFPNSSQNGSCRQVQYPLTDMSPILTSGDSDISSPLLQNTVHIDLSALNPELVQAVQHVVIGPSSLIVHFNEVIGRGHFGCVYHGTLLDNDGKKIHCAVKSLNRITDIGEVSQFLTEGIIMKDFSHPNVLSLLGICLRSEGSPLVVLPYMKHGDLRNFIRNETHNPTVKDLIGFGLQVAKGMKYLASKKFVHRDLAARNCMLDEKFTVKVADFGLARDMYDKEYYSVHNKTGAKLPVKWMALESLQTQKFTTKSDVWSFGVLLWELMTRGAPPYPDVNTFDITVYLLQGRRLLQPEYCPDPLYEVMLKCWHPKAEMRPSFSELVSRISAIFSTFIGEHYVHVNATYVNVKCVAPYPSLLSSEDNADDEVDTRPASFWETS

CC(C)(C)n1nc(-c2ccc(Cl)cc2)c2c(N)ncnc21 [PP2, reference compound]
effect on GDNF-dependent phosphorylation of MET (MET [1]; PP2 1 μM): strongly reduced | effect on HGF-induced MET phosphorylation (MET [1]): did not affect | effect on GDNF-induced MET activation (MET [2]; [9]): inhibited | effect on HGF-induced MET phosphorylation (MET [2]; [9]): but not the HGF-induced MET phosphorylation

HGF: hepatocyte growth factor (Sigma); binds to and activates MET receptor tyrosine kinase
concentration at which MET is saturated (MET [3]): 0.5 nM | chemotaxis (wild-type MDCK cells [4]): induces chemotaxis | branching tubule formation (wild-type MDCK cells [5]; HGF 50 ng/ml): only branch on exposure to HGF | MET phosphorylation (MET [2]; mock-transfected MDCK cells): only HGF phosphorylated MET

^125I-HGF: HGF enzymatically iodinated with [125I]NaI with lactoperoxidase [reference compound]
cross-linked complexes with MET (MET [6]; COS7 cells, reducing conditions, positive control): approximately 200 kDa, 250 kDa and 340 kDa complexes

B1: ^125I-GDNF: GDNF enzymatically iodinated with [125I]NaI with lactoperoxidase (protein, UniProt P39905 78-211, looked up)
Glial cell line-derived …: SPDKQMAVLPRRERNRQAAAANPENSRGKGRRGQRGKNRGCVLTAIHLNVTDLGLGYETKEELIFRYCSGSCDAAETTYDKILKNLSRNRRLVSDKVGQACCRPIAFDDDLSFLDDNLVYHILRKHSAKRCGCI
modifications: 125I label
notes: GDNF enzymatically iodinated with [125I]NaI with lactoperoxidase
cross-linked complexes with MET (MET [6]; GFRα1-expressing MDCK, SHEP or COS7 cells, and NIH 3T3 cells transiently transfected with GFRα1, EDC with sulfo-NHS, BS3, DSS, DSP): No high molecular weight complexes were revealed

B2: PSPN: persephin, the ligand for GFRα4, not known to interact with GFRα1 (protein, UniProt O60542 22-156, looked up)
Persephin: WGPDARGVPVADGEFSSEQVAKAGGTWLGTHRPLARLRRALSGPCQLWSLTLSVAELGLGYASEEKVIFRYCAGSCPRGARTQHGLALARLQGQGRAHGGPCCRPTRYTDVAFLDDRHRWQRLPQLSAAACGCGG
branching tubule formation [7]: did not evoke branching | branching tubule formation [8]: did not evoke branching | branching tubule formation (wild-type MDCK cells [5]; ligand 100 ng/ml): does not induce branching
